Results on one substance are retold here after PMC5796268, “Affinity Purification and Comparative Biosensor Analysis of Citrulline-Peptide-Specific Antibodies in Rheumatoid Arthritis” (International Journal of Molecular Sciences, 2018).

The experiment has as its system citrulline-containing peptides / affinity-purified ACPA IgG. In words: ELISA cross-reaction of affinity-purified ACPA IgG fractions with Cit-peptides. In kind it is binding, human. Particulars: ACPA 0.1 mg/mL, OD ratio Cit/Arg peptide. The source says: To see if the affinity-purified anti-peptide antibodies were able to recognize a different peptide, ELISA plates were coated with the individual peptides directly (fibrin, enolase, and EBNA-2) or indirectly, using neutravidin-coated plates and biotinylated peptides (filaggrin, collagen II, or vimentin) and the binding of the affinity-purified IgG fractions was monitored (Figure 2).
Figure 2 Reactivity of affinity-purified IgG fractions with the relevant and irrelevant citrulline-containing peptides. OD ratios that are OD with Cit/OD with Arg-containing peptides are shown. Cut-off values for each Cit- and Arg-containing peptide pair were calculated from OD indexes of 120 healthy samples (the means of OD indexes + 2 × SD). These were below 1.5 for all peptides. Results of a typical experiment.
ELISA was used to determine serum IgG ACPA concentrations and to test ACPA cross-reactions. The biotinylated, citrulline- or arginine-containing filaggrin19, vimentin, collagen II and the multi-epitope peptides were added at 1 µg/mL to the Medisorp plates (Greiner Bio-One GmbH, Kremsmünster, Germany) pre-coated with 5 µg/mL Neutravidin (Pierce Biotechnology, Rockford, IL, USA) overnight, at 4 °C, and then the plates were incubated for 1 h at 37 °C. […]
Serum samples were diluted 1:100. […] Plates were read at 450 nm with THERMO Multiscan EX ELISA-reader.

Regarding “H-Ttds-AXAXGSGSGXGXG-NH2 [multi-epitope, novel peptide consisting of two-two copies of Ala-Cit and Cit-Gly motifs separated with a neutral spacer, SGSG]”, the “binding of peptide to other affinity-purified ACPA IgG” value is on record as “bound to almost all other ACPA IgG, fibrin β was the exception”.
